# Test results taken from ChEMBL document CHEMBL4330176, “Imidazoquinolines as Novel Inhibitors of LRRK2 Kinase Activity” (ACS Med Chem Lett, 2019).
# Experiments:
# [1] = biological target: Leucine-rich repeat serine/threonine-protein kinase 2 (Homo sapiens, UniProt Q5S007); experiment: Inhibition of recombinant wild-type GST-tagged LRRK2 (unknown origin) expressed in baculovirus expression system using fluorescein-labeled LRRKtide as substrate after 30 mins by Lanthascreen assay
# [2] = biological target: Leucine-rich repeat serine/threonine-protein kinase 2 (Homo sapiens, UniProt Q5S007, G2019S); experiment: Inhibition of GST-tagged LRRK2 G2019S mutant (unknown origin) expressed in baculovirus expression system using fluorescein-labeled LRRKtide as substrate after 30 mins by Lanthascreen assay
# Chain of Leucine-rich repeat serine/threonine-protein kinase 2 (Homo sapiens, UniProt Q5S007, G2019S) (Q5S007 whole entry G2019S): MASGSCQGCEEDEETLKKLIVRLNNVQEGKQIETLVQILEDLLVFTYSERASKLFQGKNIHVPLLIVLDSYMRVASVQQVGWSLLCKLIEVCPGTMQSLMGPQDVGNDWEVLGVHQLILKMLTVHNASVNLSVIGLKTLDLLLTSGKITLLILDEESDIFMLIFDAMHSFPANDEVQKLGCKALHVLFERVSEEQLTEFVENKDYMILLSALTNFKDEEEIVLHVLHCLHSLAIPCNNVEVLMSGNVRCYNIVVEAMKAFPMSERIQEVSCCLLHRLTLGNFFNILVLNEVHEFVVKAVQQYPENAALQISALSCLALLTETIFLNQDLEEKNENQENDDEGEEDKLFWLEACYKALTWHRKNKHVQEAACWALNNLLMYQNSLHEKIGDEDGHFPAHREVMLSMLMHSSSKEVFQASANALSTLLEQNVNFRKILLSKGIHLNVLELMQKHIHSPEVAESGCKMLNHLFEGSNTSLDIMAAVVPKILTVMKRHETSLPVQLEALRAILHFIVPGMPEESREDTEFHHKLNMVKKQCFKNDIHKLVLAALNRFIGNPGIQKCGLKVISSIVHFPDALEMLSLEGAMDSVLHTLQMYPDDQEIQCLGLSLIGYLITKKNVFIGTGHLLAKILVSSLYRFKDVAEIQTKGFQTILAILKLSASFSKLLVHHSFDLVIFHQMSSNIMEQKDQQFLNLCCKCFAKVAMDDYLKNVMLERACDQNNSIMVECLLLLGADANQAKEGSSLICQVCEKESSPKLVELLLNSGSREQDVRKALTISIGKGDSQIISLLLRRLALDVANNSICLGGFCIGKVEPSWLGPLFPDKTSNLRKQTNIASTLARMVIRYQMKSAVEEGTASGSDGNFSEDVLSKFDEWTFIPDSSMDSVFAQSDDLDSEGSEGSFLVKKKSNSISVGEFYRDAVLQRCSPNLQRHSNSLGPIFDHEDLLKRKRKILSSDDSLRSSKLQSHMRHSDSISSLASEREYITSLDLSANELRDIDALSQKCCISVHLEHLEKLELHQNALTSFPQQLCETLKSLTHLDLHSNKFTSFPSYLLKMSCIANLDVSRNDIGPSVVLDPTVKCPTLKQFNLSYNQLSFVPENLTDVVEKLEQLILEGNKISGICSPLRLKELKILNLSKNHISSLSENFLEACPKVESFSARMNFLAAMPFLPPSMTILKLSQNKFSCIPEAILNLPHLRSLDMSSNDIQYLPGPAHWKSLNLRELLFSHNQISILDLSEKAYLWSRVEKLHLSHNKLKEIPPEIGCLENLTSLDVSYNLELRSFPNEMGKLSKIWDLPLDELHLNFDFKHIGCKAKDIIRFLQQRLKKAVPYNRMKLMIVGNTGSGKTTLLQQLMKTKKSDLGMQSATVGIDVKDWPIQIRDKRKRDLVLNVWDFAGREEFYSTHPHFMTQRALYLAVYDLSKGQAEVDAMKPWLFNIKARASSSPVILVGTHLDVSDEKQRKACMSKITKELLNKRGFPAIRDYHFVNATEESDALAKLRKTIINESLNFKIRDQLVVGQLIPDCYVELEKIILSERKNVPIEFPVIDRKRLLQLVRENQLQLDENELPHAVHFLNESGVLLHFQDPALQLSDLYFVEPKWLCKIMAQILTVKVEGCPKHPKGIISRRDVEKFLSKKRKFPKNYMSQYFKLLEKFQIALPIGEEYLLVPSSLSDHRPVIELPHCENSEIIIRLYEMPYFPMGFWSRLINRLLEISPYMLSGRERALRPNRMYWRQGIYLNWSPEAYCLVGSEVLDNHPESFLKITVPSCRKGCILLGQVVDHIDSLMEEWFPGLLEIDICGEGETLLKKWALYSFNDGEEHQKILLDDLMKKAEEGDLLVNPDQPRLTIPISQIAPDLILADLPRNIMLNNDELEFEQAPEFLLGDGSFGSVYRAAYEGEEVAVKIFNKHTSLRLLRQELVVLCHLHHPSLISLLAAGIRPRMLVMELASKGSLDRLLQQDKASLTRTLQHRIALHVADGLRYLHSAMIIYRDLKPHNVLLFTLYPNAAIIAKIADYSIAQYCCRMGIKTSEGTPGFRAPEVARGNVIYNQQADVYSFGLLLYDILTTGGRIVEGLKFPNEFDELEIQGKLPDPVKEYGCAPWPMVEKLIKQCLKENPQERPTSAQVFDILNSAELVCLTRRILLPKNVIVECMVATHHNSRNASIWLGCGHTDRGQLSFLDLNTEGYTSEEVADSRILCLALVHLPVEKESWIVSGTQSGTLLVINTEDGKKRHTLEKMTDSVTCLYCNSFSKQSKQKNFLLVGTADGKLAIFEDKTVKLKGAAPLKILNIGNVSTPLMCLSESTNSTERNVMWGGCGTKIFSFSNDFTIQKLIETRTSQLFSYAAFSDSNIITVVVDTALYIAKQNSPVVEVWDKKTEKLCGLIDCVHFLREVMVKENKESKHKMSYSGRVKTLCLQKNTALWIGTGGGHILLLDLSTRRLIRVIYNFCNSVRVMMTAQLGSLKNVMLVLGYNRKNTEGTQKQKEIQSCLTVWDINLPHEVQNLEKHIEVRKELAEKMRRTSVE
# Chain of Leucine-rich repeat serine/threonine-protein kinase 2 (Homo sapiens, UniProt Q5S007) (Q5S007 whole entry): as the sequence (Q5S007 whole entry G2019S) above, with S2019G counted along it
Compound,IC50 [1],IC50 [2]
Cc1nc(Cc2nc3cnc4ccc(C(F)(F)F)cc4c3n2[C@@H]2CCOCC2(F)F)no1,25.7 nM,26.5 nM
CCc1nc2cnc3ccc(Cl)cc3c2n1[C@@H]1CCO[C@H](CC#N)C1,–,8.7 nM
[2H]C([2H])([2H])c1cnc(Cc2nc3cnc4ccc(Cl)cc4c3n2[C@@H]2CCO[C@H](C)C2)cn1,–,2.16 nM
N#Cc1ccc2ncc3nc(Cc4csnn4)n([C@@H]4CC[C@H](F)C4)c3c2c1 (relative stereo),9.73 nM,9.75 nM
